Laboratory results as given in PubChem BioAssay (NCI).
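Growth conditions: 96-well plates. Treatment: test compound, 48 hours, 5 concentrations. Analysis: linear interpolation between bracketing concentrations; unreached endpoints set to highest concentration. TGI: total growth inhibition.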

Assays:
Assay in all cases: growth of human tumour cells (NCI), 48 h
[1] = test system: NCI-H522 lung
[2] = test system: SK-MEL-28 melanoma
[3] = test system: COLO 205 colon
[4] = test system: NCI-H460 lung
[5] = test system: HOP-62 NSCLC
[6] = test system: IGROV1 ovarian
[7] = test system: OVCAR-4 ovarian
[8] = test system: SF-539 CNS
[9] = test system: RXF 393 renal
[10] = test system: EKVX NSCLC
[11] = test system: MALME-3M melanoma
[12] = test system: SNB-75 CNS
[13] = test system: LOX IMVI melanoma
[14] = test system: BT-549 breast
[15] = test system: UACC-257 melanoma
[16] = test system: SW-620 colon
[17] = test system: A498 renal
[18] = test system: HCT-15 colon
[19] = test system: U251 CNS
[20] = test system: MOLT-4 leukemia
[21] = test system: HCT-116 colon
[22] = test system: A549 NSCLC
[23] = test system: NCI-H23 lung
[24] = test system: 786-0 renal
[25] = test system: ACHN renal
[26] = test system: NCI-H226 lung
[27] = test system: HT29 colon
[28] = test system: CAKI-1 renal
[29] = test system: SF-268 CNS
[30] = test system: SK-OV-3 ovarian
[31] = test system: HOP-92 NSCLC
[32] = test system: RPMI-8226 leukemia
[33] = test system: MDA-MB-435
[34] = test system: KM12 colon
[35] = test system: SNB-19 CNS
[36] = test system: OVCAR-3 ovarian
[37] = test system: SF-295 CNS
[38] = test system: T-47D breast
[39] = test system: TK-10 renal
[40] = test system: SK-MEL-5 melanoma
[41] = test system: OVCAR-8 ovarian
[42] = test system: M14 melanoma
[43] = test system: DU-145 prostate
[44] = test system: SN12C renal
[45] = test system: NCI/ADR-RES ovarian
[46] = test system: MDA-N
[47] = test system: MDA-MB-231 breast
[48] = test system: UO-31 renal
[49] = test system: OVCAR-5 ovarian
[50] = test system: SR leukemia
[51] = test system: CCRF-CEM leukemia
[52] = test system: MCF7 breast
[53] = test system: HCC-2998 colon
[54] = test system: HL-60(TB) leukemia
[55] = test system: PC-3 prostate
[56] = test system: K-562 leukemia
[57] = test system: UACC-62 melanoma
[58] = test system: SK-MEL-2 melanoma

Cc1cnc(Cl)nc1C(C#N)c1nc2ccccc2s1 (stereo not drawn)
TGI [1]: 16.4 µM | TGI [2]: > 100 µM | TGI [3]: 28.5 µM | TGI [4]: > 100 µM | TGI [5]: 54.6 µM | TGI [6]: > 100 µM | TGI [7]: > 100 µM | TGI [8]: 63.8 µM | TGI [9]: 48.1 µM | TGI [10]: > 100 µM | TGI [11]: 46 µM | TGI [12]: 53.5 µM | TGI [13]: 50.7 µM | TGI [14]: 51.2 µM | TGI [15]: > 100 µM | TGI [16]: > 100 µM | TGI [17]: 84.2 µM | TGI [18]: > 100 µM | TGI [19]: > 100 µM | TGI [20]: > 100 µM | TGI [21]: 38.2 µM | TGI [22]: > 100 µM | TGI [23]: 40.8 µM | TGI [24]: 38.3 µM | TGI [25]: 42.2 µM | TGI [26]: 84.5 µM | TGI [27]: > 100 µM | TGI [28]: 73.4 µM | TGI [29]: 87.8 µM | TGI [30]: 87.2 µM | TGI [31]: 35.4 µM | TGI [32]: > 100 µM | TGI [33]: > 100 µM | TGI [34]: > 100 µM | TGI [35]: > 100 µM | TGI [36]: > 100 µM | TGI [37]: 62.2 µM | TGI [38]: > 100 µM | TGI [39]: 78.4 µM | TGI [40]: 20.1 µM | TGI [41]: > 100 µM | TGI [42]: > 100 µM | TGI [43]: > 100 µM | TGI [44]: 63.2 µM | TGI [45]: 89.2 µM | TGI [46]: 68.1 µM | TGI [47]: > 100 µM | TGI [48]: > 100 µM | TGI [49]: 80.4 µM

CC1=C(C)C(=O)C2=C(OCCO2)C1=O
TGI [2]: 30.2 µM | TGI [3]: 33.1 µM | TGI [4]: 40.2 µM | TGI [5]: 33.1 µM | TGI [6]: 5.66 µM | TGI [8]: 35 µM | TGI [10]: 28.9 µM | TGI [11]: 29.7 µM | TGI [13]: 32.9 µM | TGI [14]: 37.7 µM | TGI [15]: 28.4 µM | TGI [16]: 45.3 µM | TGI [17]: 38.7 µM | TGI [18]: 35.1 µM | TGI [19]: 31.5 µM | TGI [20]: 7.2 µM | TGI [21]: 13.5 µM | TGI [22]: 43.1 µM | TGI [23]: 48 µM | TGI [24]: 44.6 µM | TGI [50]: 20.3 µM | TGI [51]: 8.84 µM | TGI [25]: 55.1 µM | TGI [26]: 45 µM | TGI [27]: 44.3 µM | TGI [28]: 32.7 µM | TGI [29]: 69.7 µM | TGI [30]: 34.6 µM | TGI [31]: 6.96 µM | TGI [32]: 7.08 µM | TGI [33]: 7.76 µM | TGI [34]: 34.2 µM | TGI [35]: 32.7 µM | TGI [36]: 32.3 µM | TGI [52]: 63.5 µM | TGI [37]: 33 µM | TGI [38]: 5.55 µM | TGI [39]: 32.6 µM | TGI [40]: 30.1 µM | TGI [41]: 9.34 µM | TGI [42]: 35.3 µM | TGI [43]: 34 µM | TGI [44]: 34.8 µM | TGI [45]: 21.1 µM | TGI [53]: 35 µM | TGI [46]: 26.7 µM | TGI [54]: 15 µM | TGI [47]: 11.2 µM | TGI [55]: 52.9 µM | TGI [48]: 24 µM | TGI [49]: 36.4 µM

COCCCN(Cc1cc(OC)c(OC)c(OC)c1)C(=S)Nc1cccc(Cl)c1
TGI [2]: 85.1 µM | TGI [3]: > 100 µM | TGI [56]: 69.2 µM | TGI [4]: > 100 µM | TGI [5]: > 100 µM | TGI [6]: > 100 µM | TGI [7]: 91.4 µM | TGI [8]: > 100 µM | TGI [9]: 96.4 µM | TGI [57]: 44.7 µM | TGI [10]: 52.4 µM | TGI [12]: 70.7 µM | TGI [13]: 51.1 µM | TGI [14]: 64.9 µM | TGI [15]: 48.5 µM | TGI [16]: > 100 µM | TGI [17]: > 100 µM | TGI [18]: 61.1 µM | TGI [58]: 52.1 µM | TGI [19]: > 100 µM | TGI [20]: 33.1 µM | TGI [21]: 45.1 µM | TGI [22]: > 100 µM | TGI [24]: 85.4 µM | TGI [51]: 55.7 µM | TGI [25]: > 100 µM | TGI [27]: 50.2 µM | TGI [28]: > 100 µM | TGI [29]: 63.6 µM | TGI [30]: > 100 µM | TGI [31]: 53.7 µM | TGI [32]: 37.4 µM | TGI [33]: 48.4 µM | TGI [34]: 67.6 µM | TGI [35]: > 100 µM | TGI [36]: > 100 µM | TGI [52]: 62.1 µM | TGI [37]: > 100 µM | TGI [38]: 49.2 µM | TGI [39]: > 100 µM | TGI [40]: 30 µM | TGI [41]: 72.7 µM | TGI [42]: 51.8 µM | TGI [43]: > 100 µM | TGI [44]: 92.5 µM | TGI [45]: 63.1 µM | TGI [53]: > 100 µM | TGI [46]: 45.7 µM | TGI [54]: 45.4 µM | TGI [47]: 83.5 µM | TGI [55]: 68.2 µM | TGI [48]: 90.5 µM | TGI [49]: 75.1 µM
